Data taken from patent US8846013B2, “Topical application of 1-hydroxyl-3,5-BIS(4′hydroxy styryl)benzene” (Johnson & Johnson Consumer Companies, Inc., priority 2012, dated 2014).

Tests used:
IL-8 cytokine release = test: Anti-inflammatory activity: IL-8 cytokine release from UV-exposed epidermal equivalents (EPI 200 HCF); format: cell-based, human; settings: summary statement
Experimental: The topical anti-inflammatory activities of 1-hydroxyl 3,5-bis(4′hydroxyl styryl)benzene and its piperazine salt were evaluated as follows.
Epidermal equivalents (EPI 200 HCF), multilayer and differentiated epidermis consisting of normal human epidermal keratinocytes, were purchased from MatTek (Ashland, Mass.). Upon receipt, epidermal equivalents were incubated for 24 hours at 37° C. in maintenance medium without hydrocortisone. Equivalents were topically treated (2 mg/cm^2) with 1-hydroxyl 3,5-bis(4′hydroxyl styryl)benzene thereof in a 70:30 Ethanol-Propylene glycol vehicle two hours before exposure to solar ultraviolet light (1000W-Oriel solar simulator equipped with a 1-mm Schott WG 320 filter; UV dose applied: 70 kJ/m^2 as measured at 360 nm). The equivalents were incubated for 24 hours at 37° C. with maintenance medium then supernatants were analyzed for IL-8 cytokine release using commercially available kits (Millipore Corp., Billerica, Mass.).

MMP-9 = test: Inhibition of TNF-α-induced MMP-9 levels in epidermal equivalents (EPI 200 HCF); format: cell-based, human; settings: summary statement
Experimental: The ability of 1-hydroxyl 3,5-bis(4′hydroxyl styryl)benzene to inhibit TNF-a induced MMP-9 levels was tested at different concentrations as follows. The formation of TNF-α induced MMP-9 is involved in the undesirable breakdown of extracellular matrix in human skin.
Epidermal equivalents (EPI 200 HCF) were purchased from MatTek (Ashland, Mass.). Upon receipt, the epidermal equivalents were incubated for 24 hours at 37° C. in maintenance medium without hydrocortisone. The equivalents were topically treated (2 mg/cm^2) with 1-hydroxyl 3,5-bis(4′hydroxyl styryl)benzene extracts in a 70% ethanol/30% propylene glycol vehicle 2 hours before treatment with TNF-α (100 ng/mL). the equivalents were incubated for 48 hours at 37° C. with maintenance medium then supernatants were analyzed for MMP-9 using commercially available kits (R&D Systems, Minneapolis, Minn.).

Elastin = test: Induction of Elastin gene expression in primary human dermal fibroblasts (quantitative PCR); format: cell-based; settings: summary statement
Experimental: (§1) Primary human dermal fibroblasts (Lifeline Cell Technologies, Frederick, Md.) were grown until confluence in DMEM media (Invitrogen/Life Technologies, Carlsbad, 10 CA) with 10% FBS and 1% Penicillin-Streptomycin on 24 well tissue culture plates, followed by treatment with 1-hydroxyl 3,5-bis(4′hydroxyl styryl)benzene (0.1 ug/mL) with and without TNF-a for 48 hr. Post-treatment, cells were lysed using RLT buffer and total RNA was isolated using the RNeasy Mini Kit (Qiagen, Valencia, Calif.). Quantitative PCR was performed using the Gene Amp PCR System 9700 and 7500 Real Time PCR 15 System cycler (Applied Biosystems)/Life Technologies, Carlsbad, Calif.). Elastin (Qiagen) and Collagen1α1 primers (custom sequence-sense: 5′-TCC-CCA-GCT-GTC-TTA-TGG CT-3′ (SEQ ID NO: 1) and anti-sense: 5′-CAG-GCA-CGG-AAA-TTC-CTC-C-3′ (SEQ ID NO: 2)) were used. The housekeeping gene GAPDH was used for normalization (custom primer sequence: F 5′-ATC-TCT-GCC-CCC-TCT-GCT-G-3′ (SEQ ID NO: 3) and R 5′-ATG-GTT-CAC-ACC-CAT-GAC-GA-3′ (SEQ ID NO: 4); Invitrogen/Life Technologies, Carlsbad, Calif.). Fold-changes in PCR (normalized to 5 GAPDH) were calculated from untreated.

Collagen 1A = test: Induction of Collagen1A gene expression in primary human dermal fibroblasts (quantitative PCR); format: cell-based; settings: for Collagen 1A Normalized Fold-change in PCR (Mean): 48 hr, normalized to GAPDH, from untreated
Experimental: as §1

SMILES	reduction in UV-induced inflammation in human skin cells (in words) (IL-8 cytokine release)	formation of TNF-α induced MMP-9 (in words) (MMP-9)	expression of genes associated with elastin production (in words) (Elastin)	Collagen 1A Normalized Fold-change in PCR (Mean) (Collagen 1A; 0.1 ug/mL with TNF-α (10 ng/mL))	Collagen 1A Normalized Fold-change in PCR (Mean) (Collagen 1A; 0.1 ug/mL, without TNF-a)	expression of genes associated with collagen production (in words) (Collagen 1A; summary statement)
Oc1ccc(C=Cc2cc(O)cc(C=Cc3ccc(O)cc3)c2)cc1 [1-hydroxyl 3,5-bis(4′hydroxylstyryl)benzene]	strong reduction					
Oc1ccc(/C=C/c2cc(O)cc(/C=C/c3ccc(O)cc3)c2)cc1 [1-hydroxyl 3,5-bis(4′hydroxylstyryl)benzene]	strong reduction	inhibited	increased	1.36	2.96	increased
